Assay results published in US20040192928A1, “Novel compounds of the family of 3-alkyl-(4,5-diphenyl-imidazol-1-yl) and their use as soothing agents” (priority 2001, published 2004).

Test system: interleukin-8 secreted by normal human epidermal keratinocytes (NHEKs)
Experiment: Inhibition of IL-8 secretion by NHEKs after stimulation with PMA (anti-irritant test)
Assay type: cell-based
Conditions: NHEK, test compounds at 10 μM, NHEKs with 160 nM PMA, 24 hours at 37° C., IL-8 by ELISA
Description: Inhibition of the response of superficial epidermal cells to an irritant agent by assay of the interleukin-8 secreted by normal human epidermal keratinocytes (NHEKs) after stimulation with phorbol 12-myristate 13-acetate (PMA) as irritant agent.
This study uses the test developed by Wilmer [Wilmer, J. L. et al., J. invest. Dermatol., 102: 915-922 (1994)]. This test allows the evaluation of the antiirritant potential of various molecules, on a human keratinocyte (NHEK) cell line. In this test, an irritant situation is mimicked by exacerbating the production of IL-8 of the NHEKs by adding PMA to the culture medium, IL-8 being involved in initiating the keratinocyte irritation. The antiirritant effect of a molecule is then measured by means of its inhibitory action with respect to this exacerbated production.
Normal human epidermal keratinocytes (NHEKs) sold by the company Clonetics and distributed in France by the company TEBU are incubated in the presence of 160 nM of PMA for 24 hours at 37° C. In response to the PMA, the production of the chemotactic agent interleukin-8 (IL-8) is measured by enzymatic assay using an assay kit (Elisa D8050) sold by the company R&D. The absorbance values are measured using a microplate reader (MRX/Dynatech) according to the procedures supplied with. the assay kit. […]

## c1ccc(OCCCn2cnc(-c3ccccc3)c2-c2ccccc2)cc1 [3-phenoxypropyl(4,5-diphenylimidazol)-1-yl]
  inhibition at 10 µM: 32%

## c1ccc(COCCCn2cnc(-c3ccccc3)c2-c2ccccc2)cc1 [Example 1, 3-benzyloxypropyl-(4,5-diphenylimidazol)-1-yl]
  inhibition at 10 µM: 41%
